Laboratory results taken from US8663914B2, “System and method for controlling bacterial cells with weak electric currents” (Syracuse University, priority 2009, dated 2014).
Values after ≈ are worked out from the molar mass of the structure shown. Where two headings read alike, the source gives them in different places.

Columns and labels:
[1] = tested on: E. coli HM22 persister cells; test: ROS accumulation (H2DCFDA fluorescence) and CFU count of E. coli HM22 persister cells treated with current and/or H2O2; format: cell-based
Experimental: Thus, the treatment could render the persister cells more susceptible to external ROS. To test this hypothesis, we treated E. coli HM22 persister cells with 100 μA for 20 min and followed by treatment with and without H2O2 (500 μM) for 1 h. These cells were then split into two parts: one for microscopic analysis and the other for CFU count. For microscopic study, cells were treated with 200 μM dichlorodihydrofluorescein diacetate (H2DCFDA, Sigma-Aldrich, St. Louis, Mo.) for 30 min in dark at room temperature. After incubation, cells were spin down and resuspended in PBS buffer for visualization using a fluorescence microscope (Axio Imager M1, ZEISS, Jena, Germany). The dye H2DCFDA can penetrate bacterial cells and get cleaved by cellular esterase to produce H2DCF. If there is any ROS present, this H2DCF will be converted to DCF and give fluorescence (Invitrogen, USA). […] For the CFU count, cells were plated on LB plates supplemented with DPA and incubated overnight at 37° C.

[2] = tested on: B. subtilis BE1500 biofilms; test: Treatment of B. subtilis BE1500 biofilms with ampicillin and/or DC (CFU count); format: cell-based
Experimental: MIC is not a useful measurement of the response of biofilms to antibiotics because antibiotics added in the growth medium before inoculation could kill planktonic cells before they can form a biofilm. Therefore it is important to characterize the minimum bactericidal concentration (MBC) of ampicillin on established biofilms. B. subtilis BE1500 was cultured overnight as described above. Flat stainless steel electrodes were placed in a 100 mm petri dish with 20 mL LB medium, which was inoculated with 20 μL of an overnight culture. Biofilms were allowed to develop for 48 hours at 37° C. without shaking. The electrodes with biofilms were gently washed three times in 0.85% NaCl buffer and immersed in LB medium containing various concentrations of ampicillin for 15 min. Immediately after treatment, the electrodes with biofilms were placed in a 15 mL polystyrene test tube (Fisher Scientific) containing 4 mL 0.85% NaCl buffer and sonicated for 2 min to remove the biofilm cells from the surface. The stainless steel electrode was then removed and the tube was vortexed for 30 s to break up any remaining cell clusters. CFUs were counted after spreading the buffer with cells on LB agar plates and incubated overnight at 37° C.
Treatment of Biofilm Cultures with Ampicillin and DC. B. subtilis BE1500 biofilms were prepared as described for MBC experiments. Prior to treatment, biofilms were gently washed three times with 0.85% NaCl buffer. Each stainless steel coupon with biofilm was placed as the working electrode in the electrochemical cell cuvette shown in FIG. 16. Prior to placing the electrode with biofilm in the cuvette, 3 mL LB medium was added to the cuvette to prevent the biofilm from drying out. Samples were treated for 15 min with 0, 25, 83 and 250 μA/cm^2. Immediately after treatment, the biofilms were placed in a 15 mL polystyrene test tube containing 4 mL 0.85% NaCl buffer and sonicated for 2 min to remove the biofilm from electrode. The stainless steel electrode was then removed and the tube containing the cells and buffer was vortexed for 30 s to break up any remaining cell clusters. Cell densities were determined by plating the cultures on LB/agar plates and counting CFUs. The effect of current-generated ions was tested in the same way except that the cells were incubated in pre-treated LB in the absence of a current.

[3] = tested on: planktonic B. subtilis BE1500; test: Minimum inhibitory concentration of ampicillin on planktonic cells (OD600, 96-well plate); format: cell-based; settings: Bacillus subtilis; LB medium, 24 hours, 37° C.
Experimental: Determination of Minimum Inhibitory Concentration and Minimum Bactericidal Concentrations. To determine the minimum inhibitory concentrations (MICs) of ampicillin on planktonic cells, B. subtilis 168 and B. subtilis BE1500 were cultured in LB medium overnight as described above. The overnight cultures were subcultured by a 1:1000 dilution in LB medium containing various concentrations of ampicillin with seven replicates in a 96-well plate and allowed to grow at 37° C. with shaking at 200 rpm for 24 hours. The OD600 was measured immediately after inoculations and at 24 hours after inoculation with a microplate reader (Model EL808, BioTek Instruments, Winooski, Vt.).

B. subtilis 168 = settings: reported in the literature; cited from earlier work
[4] = tested on: E. coli HM22 persister cells; format: cell-based; settings: 0.85% NaCl buffer
Experimental: To evaluate the effects of electric currents, the persister cells were first isolated as described previously. Briefly, the exponential culture of HM22 at optical density at 600 nm (OD600) of 0.3 in LB medium was treated with 100 μg/mL ampicillin for 3 h to kill and lyse the normal cells. The persister cells were then collected by centrifugation at 8000 rpm at 4° C. for 10 min and resuspended in 0.85% NaCl buffer. Electrodes with a dimension of 1 cm×5.6 cm were cut from a flat 304L stainless steel sheet (MSC; Melville, N.Y.) or graphite sheet (McMaster-CARR, Santa Fe Springs, Calif.). The same material was used for both the counter electrode and working electrode, which were placed into a 4.5 mL standard-style polystyrene cuvette (Fisher Scientific; Hampton, N.H.). A 0.48 mm diameter silver wire (A-M Systems; Sequim, Wash.) was placed in bleach for 30 min to produce an Ag/AgCl reference electrode. The bottom 1″ of a borosilicate glass Pasteur pipette (Fisher) was cut and the reference wire was placed inside to prevent contact with the working or counter electrode. An AFCBP1 potentiostat/galvanostat (Pine Instrument Company, Grove City, Pa.) was connected via alligator clamps to the electrodes and used to control the current. The volume of medium in the fully-constructed electrochemical cell was 3 mL (see FIG. 2).

P. aeruginosa PAO1 = settings: ciprofloxacin up to 200 μg/mL, 3.5 h, overnight culture
[5] = tested on: P. aeruginosa PAO1 persister cells; test: Killing of P. aeruginosa PAO1 persister cells by tobramycin with electric current or pretreated buffer (CFU count); format: cell-based
Experimental: Thus, the 1% cells that survived the treatment were persister cells and treatment with 200 μg/mL Cip was used in the following experiments to harvest persister cells and ensure the complete killing of normal cells.
However, treatment with 75 μA/cm^2 (500 μA total) current reduced the number of viable persisters by ˜2.5 logs and another 2 logs of killing was obtained when treating with Tob together, as shown in FIG. 12. […] This is a significant advantage compared to traditional antibiotics, which commonly fail to kill bacterial cells that are in stationary phase or are persisters.
To understand if the killing by electric currents was due to the ions generated by electrochemical reactions, P. aeruginosa PAO1 persister cells were also treated with pretreated buffer, which was prepared by treating 0.85% NaCl buffer with SS304 stainless steel electrodes for the same current level and duration as used for the above experiments. The pretreated buffers were collected after 20, 40 or 60 min of treatment. P. aeruginosa PAO1 persister cells were collected as described above and resuspended in the pretreated buffers in the presence and absence of Tob. The cells were then incubated at room temperature without shaking for up to 1 h and samples were collected every 20 min to count CFU. […] The generation of ROS as described in E. coli HM22 data could be partially responsible for the killing. In addition, no synergy was observed between pretreated buffer and 1.5 μg/mL Tob.

P. aeruginosa PAO1 cells = test: Killing of P. aeruginosa PAO1 cells at exponential phase by tobramycin and/or electric current (CFU count); format: cell-based
Experimental: Continued experiments, for example, have already shown that the effects of electric current and synergy with antibiotics is not species specific, as similar results were shown using P. aeruginosa. The experiments were conducted in the same way as described for E. coli HM22. Briefly, an overnight culture of P. aeruginosa PAO1 was used to inoculate LB medium to an OD600 of ˜0.005 (1:1000 dilution of an overnight culture with LB) and incubated till OD600 reached ˜0.7. Then the cells were washed twice with 0.85% NaCl buffer and treated in the same way as described for planktonic E. coli cells. […] Treatment with 75 μA/cm^2 for 60 min reduced the number of viable P. aeruginosa PAO1 cells by 3 logs.

E. coli HM22 biofilms = test: Killing of E. coli HM22 biofilm cells on 304L stainless steel coupons by tobramycin and/or direct current (CFU count); format: cell-based
Experimental: To determine if electric currents are also effective in killing persister cells in biofilms, E. coli HM22 biofilms were cultured on 304L stainless steel coupons. The biofilm-coated coupons were then used as anodic or cathodic electrode, and treated with direct current alone or with tobramycin together. Immediately after treatment, the cells were removed from the biofilm-coated coupons by sonication and vertexing. A portion of the cells was directly plated on LB+DPA plates to quantify the total number of viable cells by counting CFU, the other part of the sample was treated with 100 μg/mL ampicillin for another 3 h and plated on LB+DPA plates to quantify the number of the viable persister cells. This approach allowed us to study the killing effects on normal and persister cells separately.
However, treatments with 75 μA/cm^2 alone for 60 min reduced the number of viable persister cells by 3.5 logs. After treating biofilms with currents and tobramycin together for 60 min, the number of viable persister cells was reduced by 5.4 log (nearly complete killing, FIG. 4). Thus, synergy between electric currents and antibiotics also exist for killing persister cells in biofilms.

[6] = tobramycin alone, 20 μg/mL or 150 μg/mL, compared to untreated control

OO [H2O2]
accumulation of ROS in persister cells ([1]; H2O2 500 μM, 1 h, H2DCFDA fluorescence): caused accumulation of ROS | killing of persister cells (CFU) ([1]; electric current (100 μA, 20 min) followed by H2O2 500 μM for 1 h, versus either alone): killed more persister cells than either the EC or H2O2 alone

CC1(C)S[C@@H]2[C@H](NC(=O)[C@H](N)c3ccccc3)C(=O)N2[C@H]1C(=O)O [ampicillin]
change in killing on adding ampicillin to current ([2]; 50 μg/mL ampicillin and 500 μA current, graphite electrodes, chlorine-free M56 buffer, versus current alone): slight decrease in killing | biofilm cells killed ([2]; 1000 μg/mL ampicillin alone for 15 min): 59% | synergy of DC and ampicillin on biofilms ([2]; 83 μA/cm^2 DC and ampicillin together, stainless steel electrodes): no apparent synergy | inhibition at 50 µg/mL ([2]; Bacillus subtilis, BE1500BIOFILMS, 0.25 h, 50 μg/mL ampicillin with 500 μA DC current, 15 min, graphite electrodes, read-out: decrease in cell viability): 44% | inhibition at 100 µg/mL ([2]; Bacillus subtilis, BE1500BIOFILMS, 0.25 h, 100 μg/mL ampicillin with 83 μA/cm^2 DC, 15 min, 37° C., stainless steel electrodes, versus antibiotic alone, read-out: decrease in cell viability): 79% | inhibition at 1000 µg/mL ([2]; Bacillus subtilis, BE1500BIOFILMS, 0.25 h, 1000 μg/mL ampicillin with 83 μA/cm^2 DC, 15 min, 37° C., stainless steel electrodes, versus antibiotic alone, read-out: decrease in cell viability): 86% | inhibition at 50 µg/mL ([2]; Bacillus subtilis, BE1500BIOFILMS, 0.25 h, read-out: decrease in cell viability, 50 μg/mL ampicillin with 83 μA/cm^2 (500 μA) DC, 15 min, 37° C., stainless steel electrodes, LB, versus antibiotic alone): 93% | viability at 50 µg/mL ([2]; Bacillus subtilis, BE1500BIOFILMS, 50 μg/mL ampicillin with 500 μA DC current, graphite electrodes, chlorine-free M56 buffer, read-out: viability of biofilm cells (untreated control normalized as 100%)): 74% | MIC [3]: ≤ 2 µg/mL | MIC (B. subtilis 168): 0.2 µg/mL (≈ 0.572 µM)

CCn1nc(C(=O)O)c(=O)c2cc3c(cc21)OCO3 [cinoxacin]
reduction in the number of viable persister cells ([4]; 20 μg/mL cinoxacin alone, graphite electrodes cell, 60 min): no apparent reduction | reduction in the number of viable persister cells ([4]; 20 μg/mL cinoxacin together with 75 μA/cm^2 current, graphite electrodes): more than 5 log

O=C(O)c1cn(C2CC2)c2cc(N3CCNCC3)c(F)cc2c1=O [ciprofloxacin]
cells that survived the treatment (P. aeruginosa PAO1): 1%

NC[C@H]1O[C@H](O[C@H]2[C@H](O)[C@@H](O[C@H]3O[C@H](CO)[C@@H](O)[C@H](N)[C@H]3O)[C@H](N)C[C@@H]2N)[C@H](N)C[C@@H]1O [tobramycin]
killing of persister cells ([5]; 1.5 μg/mL Tob alone): not able to kill | synergy between pretreated buffer and Tob ([5]; 1.5 μg/mL Tob in 0.85% NaCl buffer pretreated with SS304 electrodes, no current, up to 1 h): no synergy | additional killing of persister cells beyond current alone ([5]; 1.5 μg/mL Tob together with 75 μA/cm^2 (500 μA total) current): 2 logs | synergy with electric current in killing persister cells ([4]; tobramycin with 75 μA/cm^2 DC, graphite electrodes): synergistic effect | killing of viable cells (P. aeruginosa PAO1 cells; 1.5 μg/mL Tob alone, 0.85% NaCl buffer): did not cause any significant killing | killing of viable cells (P. aeruginosa PAO1 cells; 1.5 μg/mL Tob combined with 75 μA/cm^2 for 60 min): up to 5 logs | reduction of number of viable persister cells in biofilm (E. coli HM22 biofilms; currents (75 μA/cm^2 DC) and tobramycin (20 μg/mL) together for 60 min): 5.4 log | reduction in number of viable persister cells in biofilm (E. coli HM22 biofilms; [6]): no significant reduction | reduction in total number of viable cells in biofilm (E. coli HM22 biofilms; [6]): no significant reduction
